# In paper PMC4573583 (ACS chemical biology, 2015):
# Entries after “also recorded” stand apart in the source; their conditions may differ.
# Legend:
# BamL = settings: cited from earlier work
# aqueous solubility = format: physicochemical; settings: in words
# Escherichia coli DH5a = format: cell-based
# [1] = test system: other representative members of the genus Bacillus; format: cell-based
# [2] = test system: Bacillus anthracis Sterne; settings: microbroth dilution method, ref [6], [10]; cited from earlier work
# B. anthracis Sterne [3] = format: cell-based, Bacillus anthracis; settings: 24 μM, 12 h treatment, duplicate, *P<0.01 vs DMSO-treated
# [4] = test system: other members of the genus Bacillus; settings: cited from earlier work
# B. anthracis Sterne [5] = format: cell-based, Bacillus anthracis; settings: 4 μM, 30 min, mid-exponential phase cells, 22 °C
# Bacillus subtilis 168 = format: cell-based
# MRSA (S. aureus NRS384) = test: cell density after 12 h treatment, MRSA; format: cell-based, Staphylococcus aureus; settings: 24 μM, duplicate, #P<0.01 vs DMSO-treated MRSA
molecule,measurement,setting,value
NC(=O)[C@@H](N)CCCN=C(N)N [Arg amide],acceptance as substrate,BamL,poorer substrate that is turned over by BamL but only under single-turnover conditions; also recorded: only so under near-single turnover conditions
N=C(N)NCCC[C@H](N)C(=O)O [Arg],acceptance as substrate,BamL,not accepted as a substrate
RCTCTT [Arg-Az5],aqueous solubility,aqueous solubility,moderate solubility
plantazolicin [PZN],minimum inhibitory concentration (MIC),Escherichia coli DH5a,>48 µM
same,activity against other Bacillus (microbroth dilution),[1],> 48 µM
same,susceptibility to purified PZN,[2],the only organism susceptible to the action of purified PZN to date has been Bacillus anthracis
same,"bactericidal effect (cell density, 595 nm)",B. anthracis Sterne [3],bactericidal
same,growth inhibitory activity,[4],weak growth inhibitory activity
same,cell lysis,B. anthracis Sterne [5],induces major cell lysis above the MIC; also recorded: shows cell lysis
same,minimum inhibitory concentration (MIC),Bacillus subtilis 168,>48 µM
same,"antibiotic activity (cell density, 595 nm)",MRSA (S. aureus NRS384),not PZN displays antibiotic activity against MRSA
